Patent publication US20240408062A1 (Purdue Research Foundation, priority 2022, published 2024)

Target: SARS-CoV-2 3CLpro (Severe acute respiratory syndrome coronavirus 2, UniProt P0DTD1)
Assay: Inhibition of SARS-CoV-2 3CLpro, continuous fluorescence assay with FRET-based substrate UIVT3
Assay type: biochemical
Details: FRET substrate UIVT3, 50-200 nM enzyme, pH 7.5, 25° C.
Protocol: Kinetic assays were performed in Costar 3694 EIA/RIA 96-well half-area, flat bottom, black polystyrene plates (Corning, Corning, NY) at 25° C. The increase in fluorescence intensity was measured at an emission wavelength of 528 nm (20 nm bandwidth) using an excitation wavelength of 485 (bandwidth 20 nm) using a CLARIOstar Plate Reader (BMG Labtech, Cary, NC). The initial rates of the reactions were determined from the slopes of the Relative Fluorescence Units (RFU) versus time (RFU min^−1). Inhibition data were collected and analyzed as described previously.

| Compound | Activity of SARS-CoV-2 Mpro inhibitors |
| --- | --- |
| COc1cccc2[nH]c(C(=O)N[C@@H](CC(C)C)C(=O)N[C@@H](C[C@@H]3CCNC3=O)C(=O)C(=O)c3ccccc3)cc12 [Compound 1] | A++ (A++ < 1 μM) |
| CN(C(=O)[C@@H](NC(=O)C(F)(F)F)C(C)(C)C)[C@H](CC1CCCC1)C(=O)NC(C[C@@H]1CCNC1=O)C(=O)C(=O)c1ccccc1 (some centres unmarked) [Compound 3] | A+ (A+ < 10 μM) |
| CC(C)C[C@@H](C(=O)N[C@@H](CC1CCCNC1=O)C(=O)C(=O)c1ccccc1)N(C)C(=O)[C@@H](NC(=O)C(F)(F)F)C(C)(C)C (some centres unmarked) [Compound 5] | A++ (A++ < 1 μM) |
| CC(C)C[C@@H](C(=O)N[C@@H](C[C@@H]1CCNC1=O)C(=O)C(=O)c1ccccc1)N(C)C(=O)[C@@H](NC(=O)C(F)(F)F)C(C)(C)C [Compound 2] | A+ (A+ < 10 μM) |
| CC(C)C[C@H](CC(=O)[C@@H](NC(=O)C(F)(F)F)C(C)(C)C)C(=O)N[C@@H](C[C@@H]1CCNC1=O)C(=O)C(=O)c1ccccc1 [Compound 4] | A++ (A++ < 1 μM) |
